Experimental data taken from patent publication US20060205772A1, “Amide derivatives and their use as inhibitors of 11-beta-hydroxysteroid dehydrogenase type I” (priority 2003, published 2006).

Key:
[1] = target: T1, human recombinant 11β-HSD1 (Homo sapiens, UniProt P28845); assay: in vitro inhibition of human recombinant 11β-HSD1 (Pichia pastoris microsomes, [3H]cortisone to [3H]cortisol); assay type: biochemical; settings: recombinant human 11β-HSD1 microsomes, 500 nM cortisone mixture, NADPH, 90 min at 37° C.
T1 construct: made in house; host or cells: Pichia pastoris (microsomal fraction)
T1 sequence (P28845 whole entry): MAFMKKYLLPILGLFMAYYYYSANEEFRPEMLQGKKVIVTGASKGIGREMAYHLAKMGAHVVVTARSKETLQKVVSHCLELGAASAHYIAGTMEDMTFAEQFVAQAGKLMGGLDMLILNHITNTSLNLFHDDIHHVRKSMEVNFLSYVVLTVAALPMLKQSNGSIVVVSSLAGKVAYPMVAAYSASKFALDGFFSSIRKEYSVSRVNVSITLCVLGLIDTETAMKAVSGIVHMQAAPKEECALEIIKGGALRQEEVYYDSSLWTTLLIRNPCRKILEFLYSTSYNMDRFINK
Protocol: The in vitro inhibition of human recombinant 11β-HSD1 is determined as follows:
Recombinant human 11β-HSD1 is expressed in yeast Pichia pastoris. Cultures are grown at 30° C. for 3 days in the presence of methanol to induce enzyme expression. The microsomal fraction overexpressing 11β-HSD1 is prepared from the cell homogenate and used as the enzyme source for primary screening. A test compound at the desired concentration is preincubated for 10 min at RT with 3 μg of the microsomal protein in 50 mM sodium phosphate, pH 7.5, in a total volume of 80 μL. The enzyme reaction is initiated by adding 20 μL of a mixture containing 5 mM NADPH, 500 nM cortisone, and 80,000 dpm of [^3H]cortisone in the same buffer and is terminated by ethyl acetate after incubation for 90 min at 37° C. The production of [^3H]cortisol is quantitated upon separation from [^3H]cortisone by a C18 column on HPLC equipped with a radioactivity detector. Glycerrhetinic acid, a known inhibitor of 11β-HSD1, is used as a standard.

[2] = target: T2, human 11β-HSD2 (Homo sapiens, UniProt P80365); assay: in vitro inhibition of human 11β-HSD2 (SW-620 cell lysates, [3H]cortisol to [3H]cortisone); assay type: biochemical
T2 construct: using lysates of SW-620 cells as the enzyme source; host or cells: SW-620 human colon carcinoma cells (lysate)
T2 sequence (P80365 1-405): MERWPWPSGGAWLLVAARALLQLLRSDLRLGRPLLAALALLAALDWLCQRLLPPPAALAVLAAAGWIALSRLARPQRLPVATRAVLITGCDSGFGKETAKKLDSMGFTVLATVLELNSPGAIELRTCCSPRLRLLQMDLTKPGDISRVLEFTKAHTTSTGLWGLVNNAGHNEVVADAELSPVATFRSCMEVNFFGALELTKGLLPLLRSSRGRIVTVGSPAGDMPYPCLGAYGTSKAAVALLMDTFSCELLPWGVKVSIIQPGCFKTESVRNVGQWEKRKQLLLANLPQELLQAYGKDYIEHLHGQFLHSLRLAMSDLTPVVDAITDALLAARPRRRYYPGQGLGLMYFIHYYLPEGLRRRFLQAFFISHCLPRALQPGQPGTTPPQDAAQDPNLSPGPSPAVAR
Protocol: The in vitro inhibition of human 11β-HSD2 is determined as follows:
The SW-620 human colon carcinoma cell line is obtained from the American Type Culture Collection (ATCC). Cells are plated at a density of 8-10×10^4 cells/cm^2 in DMEM/F12 containing 5% BCS, 100 U/mL penicillin, 100 μg/mL streptomycin and […] amphotericin B. Cultures are grown to 80-90% confluence in a humidified, atmosphere of 5% CO2 at 37° C. The medium is changed to serum-free, phenol red-free DMEM/F12 at 24 h before harvesting the cells.
After 24 h in serum-free medium, cultured SW-620 cells are rinsed and scraped in Kreb's-Ringer buffer, pH 7.4, containing 1 mM EDTA, 2 μg/mL aprotinin, 10 μM leupeptin and 1 μM pepstatin. After sonication (30 seconds) and low speed centrifugation (2,000 rpm, 5 min) to remove cellular debris, the supernatant is collected and used to determine enzyme activity and protein concentration (BCA, Pierce, Rockford, Ill.).
Dehydrogenase activity is quantified by measuring the conversion of [^3H]cortisol to [^3H]cortisone using lysates of SW-620 cells as the enzyme source. The assay is performed in tubes containing Kreb's-Ringer buffer pH 7.4, with 0.20 mM NAD and 200,000 dpm of [^3H]cortisol and a test compound in a total volume of 1 mL. The tubes are preincubated for 10 min at 37° C. before adding 200 μg of cell lysates to start the reaction. After incubation for 1 h at 37° C. in a shaking water bath, the mixture is extracted with 2 volumes of ethyl acetate and centrifuged for 10 min at 2,000 rpm. The organic layer is collected, dried under vacuum and resuspended in methanol. The dissolved residues are quantitatively transferred to thin layer plates and developed in chloroform-methanol (90:10). Unlabeled cortisol and cortisone were used as reference markers. The TLC plates are scanned on a Bioscan radioimaging detector (Bioscan, Washington, D.C.), and the fractional conversion of cortisol to cortisone is calculated. Enzyme activity is expressed as pmoles of product formed per mg protein per hour. Carbenoxolone and glycyrrhetinic acid are used as standards.

[3] = target: T3, cellular 11β-HSD1 (Rattus norvegicus, UniProt P16232); assay: inhibition of cellular 11β-HSD1 activity in primary rat hepatocytes; assay type: cell-based; settings: 2 h incubation
T3 construct: Enzyme activity is measured in the medium of primary cultures of rat hepatocytes 48 h after plating the cells; endogenous in cells; host or cells: primary hepatocytes of male Sprague-Dawley rats
T3 sequence (P16232 whole entry): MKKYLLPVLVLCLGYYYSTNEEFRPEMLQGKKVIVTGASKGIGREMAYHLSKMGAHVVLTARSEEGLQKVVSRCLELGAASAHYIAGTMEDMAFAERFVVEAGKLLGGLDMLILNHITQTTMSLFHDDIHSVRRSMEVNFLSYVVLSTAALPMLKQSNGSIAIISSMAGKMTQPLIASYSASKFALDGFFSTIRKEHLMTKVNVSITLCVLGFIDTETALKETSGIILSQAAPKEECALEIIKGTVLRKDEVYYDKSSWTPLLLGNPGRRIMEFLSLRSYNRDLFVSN
Protocol: The inhibition of cellular 11β-HSD1 activity in primary rat hepatocytes is determined as follows:
Male Sprague-Dawley rats weighing 180-200 g are anesthetized with sodium pentobarbital (65 mg/kg). The liver is perfused in situ with calcium-free Earl's Balanced Salt Solution (EBSS) followed by EBSS containing 100-150 U/mL of collagenase, 1.8 mM CaCl2 and 10 mM HEPES, pH 7.4. The perfused liver is removed and aseptically placed in warm William's Medium E containing 10% BCS. After decapsulation, the organ is transferred to fresh medium and gently shaken to facilitate tissue dissociation and cell release. Hepatocytes are separated from nonparenchymal and dead cells by repeated low speed centrifugation. Cell viability is determined by trypan blue exclusion.
Hepatocytes are plated on collagen coated dishes at a density of 1×10^5 cells/cm^2 in William's medium E containing 10% BCS, 100 U/mL penicillin, 100 μg/mL streptomycin, 0.25 μg/mL amphotericin B, 2 mM L-glutamine, 10 mM HEPES, 100 nM insulin and 1 nM dexamethasone. After 1 h the medium is changed to serum-free William's medium E supplemented as described above. Thereafter, the medium is replaced every 24 h. The cultures are maintained in a humidified atmosphere of 5% CO2 at 37° C.
Enzyme activity is measured in the medium of primary cultures of rat hepatocytes 48 h after plating the cells. The medium is aspirated and replaced with serum-free William's medium E containing 2 nM [^3H]11-dehydrocorticosterone and a test compound and is incubated for 2 h. An aliquot of culture medium is removed at the end of the incubation and the mixture is extracted with 2 volumes of ethyl acetate, dried under vacuum and resuspended in methanol. The dissolved residues are quantitatively transferred to thin layer plates and developed in chloroform-methanol (90:10). The TLC plates are scanned on a Bioscan imaging detector and the fractional conversion of 11-dehydrocorticosterone to corticosterone is calculated. The cell layer is rinsed with cold phosphate-buffered saline and dissolved in 0.1 N NaOH/5% SDS for the determination of cellular protein (BCA, Pierce, Rockford, Ill.). Enzyme activity is expressed as pmoles of product formed per mg protein per hour.

[4] = test system: corticosterone production in adrenalectomized (ADX) mice; assay: inhibition of corticosterone production in adrenalectomized (ADX) mice; assay type: in vivo; settings: Mus musculus, po; ADX CD1 mice, orally 25 mg/kg each at 2 and 4 h before sacrifice; liver corticosterone
Protocol: Inhibition of corticosterone production in adrenalectomized (ADX) mice is determined as follows:
Bilateral adrenalectomy is performed in male mice of the CD1 strain (6 to 8 weeks of age, 25-30 g body weight) through a lumbar laparotomy. After 10 days the animals are fasted for 24 h. Compounds are administered orally at 25 mg/kg each at 2 and 4 h before sacrifice. A second group of animals receives carbenoxolone at the same dose, and a third group receives the vehicle (cornstarch). Homogenized liver samples are used to measure corticosterone concentration which is determined by radioimmunoassay and is expressed as pg of corticosterone per mg of liver protein.

COC(=O)Nc1ccc(C(=O)N2CC[C@H]3CCCC[C@H]3C2)c(OC)c1 [Example 48-37]
IC50 [1]: 0.77 µM | inhibition at 10 µM [2]: 29% | inhibition at 1 µM [3]: 75% | change in vivo at 25 mg/kg [4]: -69%
